Data from patent US20250152592A1, “PHARMACEUTICAL COMPOSITION COMPRISING ALLOPURINOL, FEBUXOSTAT OR PHARMACEUTICALLY ACCEPTABLE SALT THEREOF FOR PREVENTION OR TREATMENT OF CHRONIC KIDNEY DISEASE IN SUBJECT HAVING HIGH SERUM URIC ACID CONCENTRATION” (Indream Healthcare Inc., priority 2022, published 2025).

System: patients with gout and a history of major cardiovascular diseases
Assay: odds ratio for risk of developing or worsening chronic kidney disease, serum uric acid at or above 6 vs below 6
Assay type: in vivo, human
Method: In order to confirm the effect of allopurinol and febuxostat on the kidney disease, the data obtained in the clinical trial described above was analyzed.
The patients were classified into patient groups by specific biomarkers such as blood glucose level, blood pressure, and kidney disease steps, and then risks of developing or worsening the kidney disease in patients who had the serum uric acid concentration decreased to less than 6 and patients who maintained the serum uric acid concentration at or above 6 were confirmed using odds ratios (OR) after the administration of allopurinol and febuxostat, and the results are shown in Tables 1 to 3.
Risks of developing the kidney disease of the patients who had the serum uric acid concentration decreased to less than 6 and the patients who maintained the serum uric acid concentration at or above 6 by administering allopurinol were confirmed using the odds ratios, and the results are shown in the following Table 1.
In Table 6, the risks of developing the kidney disease of the patients who had the serum uric acid concentration decreased to less than 6 and the patients who maintained the serum uric acid concentration at or above 6 by administering febuxostat are confirmed using the odds ratios.
In Table 12, the risks of developing the kidney disease of the patients who had the serum uric acid concentration decreased to less than 6 and the patients who maintained the serum uric acid concentration at or above 6 were confirmed using the odds ratio, in both patient groups to which allopurinol or febuxostat was administered.

[1] = Table 12, both administration groups

## Oc1ncnc2[nH]ncc12 [allopurinol]
Table 12, blood glucose ≥126 mg/dl, DBP ≤80 mm/Hg, or SBP ≤130 mm/Hg
  prevention or treatment of chronic kidney disease when serum uric acid maintained below 6: effectively prevented or treated
[1]
  prevention or treatment of chronic kidney disease when serum uric acid maintained below 6: effectively prevented or treated
allopurinol, blood glucose level of 126 mg/dl or less
  risk of developing or worsening the chronic kidney disease, serum uric acid at or above 6 vs below 6 (odds ratio): about 1.34 times
allopurinol, blood glucose level of 126 mg/dl or more
  risk of developing or worsening the chronic kidney disease, serum uric acid at or above 6 vs below 6 (odds ratio): about 2.53 times
allopurinol, diastolic blood pressure of 80 mm/Hg or higher
  risk of developing or worsening the kidney disease, serum uric acid at or above 6 vs below 6 (odds ratio): about 1.35 times
allopurinol, diastolic blood pressure of 80 mm/Hg or lower
  risk of developing or worsening the chronic kidney disease, serum uric acid at or above 6 vs below 6 (odds ratio): about 2.04 times
allopurinol, having congestive cardiac failure
  risk of developing or worsening the chronic kidney disease, serum uric acid at 6 or more vs below 6 (odds ratio): about 1.21 times
allopurinol, no congestive cardiac failure
  risk of developing or worsening the chronic kidney disease, serum uric acid at 6 or more vs below 6 (odds ratio): about 1.84 times
allopurinol, systolic blood pressure of 130 mm/Hg or higher
  risk of developing or worsening the chronic kidney disease, serum uric acid at or above 6 vs below 6 (odds ratio): about 1.54 times
allopurinol, systolic blood pressure of 130 mm/Hg or lower
  risk of developing or worsening the chronic kidney disease, serum uric acid at or above 6 vs below 6 (odds ratio): about 1.93 times

## Cc1nc(-c2ccc(OCC(C)C)c(C#N)c2)sc1C(=O)O [febuxostat]
Table 6, blood glucose ≥126 mg/dl, DBP ≤80 mm/Hg, or SBP ≤130 mm/Hg
  prevention or treatment of chronic kidney disease when serum uric acid maintained below 6: effectively prevented or treated
Table 6, serum uric acid of 8 mg/dL or more or gout lasting for 10 years or more
  prevention or treatment of chronic kidney disease when serum uric acid maintained below 6: effectively prevented or treated
[1]
  prevention or treatment of chronic kidney disease when serum uric acid maintained below 6: effectively prevented or treated
